Measurements from US10941157B2, “Pesticidal compositions and uses thereof” (Gilead Apollo, LLC, priority 2015, dated 2021).
Values after ≈ are worked out from the molar mass of the structure shown.

Assays:
[1] = tested on: Fusarium virguliforme (Fv); test: In vitro pathogen growth inhibition assay, Fv; assay type: cell-based; conditions: ≥90% growth inhibition, 48 hours, vs 2% DMSO control, read-out: Compound Concentration (ppm) sufficient for ≥90% inhibition of Fv
Method in brief: (§1)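 Value reported is the compound concentration reaching ≥90% growth inhibition, from OD readings at 24 and 48 h after blank subtraction, confirmed visually. Inoculum was spores diluted in 17% V8 medium, except Rs, using 1.5 mm mycelial plugs in ¼ PDB; actual compound concentration corrected via OD600.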

[2] = tested on: Mycosphaerella graminicola (synthetic Septoria tritici); test: Foliar protection test for wheat septoria leaf blotch control; assay type: in vivo; conditions: foliar spray on Triticum aestivum cv. WinterHawk, inoculated 1 hour after treatment, evaluated 16 days later
Rhizoctonia solani (Rs) = test: In vitro pathogen growth inhibition assay, Rs (mycelial plugs); assay type: cell-based; conditions: Rhizoctonia solani, 48 h, ≥90% growth inhibition; mycelial plugs; 48 hours; vs 2% DMSO control; read-out: Compound Concentration (ppm) sufficient for ≥90% inhibition of Rs
Method in brief: as §1

Puccinia triticina = test: Foliar protection test for wheat leaf rust control; assay type: in vivo; conditions: foliar application to wheat (Triticum aestivum cv. Winterhawk), evaluated 10 days later
Sphaerotheca fuliginea = test: Foliar protection for cucumber powdery mildew control; assay type: in vivo; conditions: foliar spray on Cucumis sativus cv. Straight Eight, inoculated 24 hours after treatment, evaluated 7 days later
Method in brief: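 Cucumber plants (cv. Straight Eight, 10 days old) sprayed to wetness on both leaf surfaces, then inoculated 24 h later by shaking sporulating stock plants over them. Held at 23–27 °C, 16 h light, 60% RH. Mildew colonization scored 7 days after inoculation, at compound concentrations of 10 ppm or lower.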

[3] = tested on: Phytophthora capsici (Pc); test: In vitro pathogen growth inhibition assay, Pc; assay type: cell-based; conditions: 48 h, ≥90% growth inhibition, 48 hours, vs 2% DMSO control, read-out: Compound Concentration (ppm) sufficient for ≥90% inhibition of Pc
Method in brief: as §1

[4] = tested on: Collectotrichum graminicola (Cg); test: In vitro pathogen growth inhibition assay, Cg; assay type: cell-based; conditions: 48 h, ≥90% growth inhibition; 48 hours; vs 2% DMSO control; read-out: Compound Concentration (ppm) sufficient for ≥90% inhibition of Cg
Method in brief: (§2)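 Spores in 17% V8 liquid medium, or 1.5 mm Rs mycelial plugs in ¼ PDB, incubated with compound; final concentration checked by OD600 for precipitation. OD readings at 24 and 48 h, blank-subtracted, plus visual ratings; value is concentration giving ≥90% growth inhibition.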

Botrtyis cinerea (Bc) = test: In vitro pathogen growth inhibition assay, Bc; assay type: cell-based; conditions: 48 h, ≥90% growth inhibition; 48 hours; vs 2% DMSO control; read-out: Compound Concentration (ppm) sufficient for ≥90% inhibition of Bc
Method in brief: as §2

Septoria tritici (St) = test: In vitro pathogen growth inhibition assay, St; assay type: cell-based; conditions: Zymoseptoria tritici, 48 h, ≥90% growth inhibition; 48 hours; vs 2% DMSO control; read-out: Compound Concentration (ppm) sufficient for ≥90% inhibition of St
Method in brief: as §2

[5] = tested on: Blumeria graminis f. sp. hordei; test: Foliar protection test for barley powdery mildew control; assay type: in vivo; conditions: foliar spray on Hordeum vulgare cv. Perry, inoculated 24 hours after treatment, evaluated 7 days later
Method in brief: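 Six-day-old barley (cv. Perry) sprayed to wetness on both leaf sides; 24 h later inoculated by shaking spores from infected stock plants. Kept at 20 to 22° C, 70% relative humidity; mildew colonization assessed 7 days later.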

Fusarium graminearum = assay type: in vivo; conditions: spray on flowering Triticum aestivum cv. Samson, inoculated 24 hours after treatment, evaluated 14 days later
Diplodia maydis (Dm) = test: In vitro pathogen growth inhibition assay, Dm; assay type: cell-based; conditions: Stenocarpella maydis, 48 h, ≥90% growth inhibition; 48 hours; vs 2% DMSO control; read-out: Compound Concentration (ppm) sufficient for ≥90% inhibition of Dm
Method in brief: as §1

Phakopsora pachyrhizi = test: Foliar protection test for Asian soybean rust control; assay type: in vivo; conditions: foliar application to soybean (Glycine max AG4832), percent disease area evaluated 14 days later
[6] = tested on: Fusarium moniliforme (Fm); test: In vitro pathogen growth inhibition assay, Fm; assay type: cell-based; conditions: Fusarium verticillioides; ≥90% growth inhibition; 48 hours; vs 2% DMSO control; read-out: Compound Concentration (ppm) sufficient for ≥90% inhibition of Fm
Method in brief: as §2

## CCOC(=O)c1sc2c(c1C)c(=O)n(C(C)(C)C(=O)NC(C)C)c(=O)n2C[C@H](O)c1cc(F)ccc1OC [Compound I-186, (R)-ethyl-1-(2-(5-fluoro-2-methoxyphenyl)-2-hydroxyethyl)-3-(1-(isopropylamino)-2-methyl-1-oxopropan-2-yl)-5-methyl-2,4-dioxo-1,2,3,4-tetrahydrothieno[2,3-d]pyrimidine-6-carboxylate]
[1]
  IC90: 0.08 µg/mL (≈ 0.146 µM)
[2]
  Septoria Leaf Blotch Control at a compound concentration of 25 ppm or lower: D (<25% control of wheat septoria leaf blotch)
Rhizoctonia solani (Rs)
  IC90: 0.4 µg/mL (≈ 0.728 µM)
Puccinia triticina
  Wheat Leaf Rust Control at a compound concentration of 10 ppm or lower: C (from 25 to 49% control of wheat leaf rust)
Sphaerotheca fuliginea
  Cucumber Powdery Mildew Control at a compound concentration of 10 ppm or lower: C (from 25 to 49% control of cucumber powdery mildew)
[3]
  IC90: > 50 µg/mL
[4]
  IC90: 2 µg/mL (≈ 3.64 µM)
Botrtyis cinerea (Bc)
  IC90: 0.4 µg/mL (≈ 0.728 µM)
Septoria tritici (St)
  IC90: > 50 µg/mL
[5]
  Barley Powdery Mildew Control at a compound concentration of 10 ppm or lower: A (from 70% to 84% control of barley powdery mildew)
Fusarium graminearum
  Wheat Fusarium Head Blight Control at a compound concentration of 25 ppm or lower: B (from 50 to 69% control of wheat fusarium head blight)
Diplodia maydis (Dm)
  IC90: 2 µg/mL (≈ 3.64 µM)
Phakopsora pachyrhizi
  Asian Soybean Rust Control at a compound concentration of 25 ppm or lower: D (<25% control of Asian soybean rust)
[6]
  IC90: 0.08 µg/mL (≈ 0.146 µM)

## COc1ccc(F)cc1[C@H](Cn1c(=O)n([C@H](C)C(=O)NC(C)C)c(=O)c2c(C)c(-n3nccn3)sc21)OCCC#N [Compound I-198, (R)-2-(1-((R)-2-(2-cyanoethoxy)-2-(5-fluoro-2-methoxyphenyl)ethyl)-5-methyl-2,4-dioxo-6-(2H-1,2,3-triazol-2-yl)-1,4-dihydrothieno[2,3-d]pyrimidin-3 (2H)-yl)-N-isopropylpropanamide]
[1]
  IC90: 0.4 µg/mL (≈ 0.685 µM)
[2]
  Septoria Leaf Blotch Control at a compound concentration of 25 ppm or lower: AA (≥85% control of wheat septoria leaf blotch)
Rhizoctonia solani (Rs)
  IC90: 0.08 µg/mL (≈ 0.137 µM)
Puccinia triticina
  Wheat Leaf Rust Control at a compound concentration of 10 ppm or lower: AA (≥85% control of wheat leaf rust)
Sphaerotheca fuliginea
  Cucumber Powdery Mildew Control at a compound concentration of 10 ppm or lower: AA (≥85% control of cucumber powdery mildew)
[3]
  IC90: 2 µg/mL (≈ 3.43 µM)
[4]
  IC90: 0.08 µg/mL (≈ 0.137 µM)
Botrtyis cinerea (Bc)
  IC90: 0.4 µg/mL (≈ 0.685 µM)
Septoria tritici (St)
  IC90: ≥ 2 µg/mL
[5]
  Barley Powdery Mildew Control at a compound concentration of 10 ppm or lower: AA (≥85% control of barley powdery mildew)
Fusarium graminearum
  Wheat Fusarium Head Blight Control at a compound concentration of 25 ppm or lower: C (from 25 to 49% control of wheat fusarium head blight)
Diplodia maydis (Dm)
  IC90: 0.08 µg/mL (≈ 0.137 µM)
Phakopsora pachyrhizi
  Asian Soybean Rust Control at a compound concentration of 25 ppm or lower: AA (≥85% control of Asian soybean rust)
[6]
  IC90: 0.08 µg/mL (≈ 0.137 µM)

## COc1ccccc1[C@@H](O)Cn1c(=O)n(C(C)(C)C(=O)NC(C)C)c(=O)c2c(C)c(-n3nccn3)sc21 [Compound I-316, (R)-2-(1-(2-hydroxy-2-(2-methoxyphenyl)ethyl)-5-methyl-2,4-dioxo-6-(2H-1,2,3-triazol-2-yl)-1,4-dihydrothieno[2,3-d]pyrimidin-3 (2H)-yl)-N-isopropyl-2-methylpropanamide]
[1]
  IC90: 0.08 µg/mL (≈ 0.152 µM)
[2]
  Septoria Leaf Blotch Control at a compound concentration of 25 ppm or lower: A (from 70% to 84% control of wheat septoria leaf blotch)
Rhizoctonia solani (Rs)
  IC90: 0.08 µg/mL (≈ 0.152 µM)
Puccinia triticina
  Wheat Leaf Rust Control at a compound concentration of 10 ppm or lower: AA (≥85% control of wheat leaf rust)
Sphaerotheca fuliginea
  Cucumber Powdery Mildew Control at a compound concentration of 10 ppm or lower: AA (≥85% control of cucumber powdery mildew)
[3]
  IC90: ≥ 10 µg/mL
[4]
  IC90: 2 µg/mL (≈ 3.8 µM)
Botrtyis cinerea (Bc)
  IC90: 0.4 µg/mL (≈ 0.76 µM)
Septoria tritici (St)
  IC90: > 50 µg/mL
[5]
  Barley Powdery Mildew Control at a compound concentration of 10 ppm or lower: AA (≥85% control of barley powdery mildew)
Fusarium graminearum
  Wheat Fusarium Head Blight Control at a compound concentration of 25 ppm or lower: C (from 25 to 49% control of wheat fusarium head blight)
Diplodia maydis (Dm)
  IC90: 2 µg/mL (≈ 3.8 µM)
Phakopsora pachyrhizi
  Asian Soybean Rust Control at a compound concentration of 25 ppm or lower: A (from 70% to 84% control of Asian soybean rust)
[6]
  IC90: 0.08 µg/mL (≈ 0.152 µM)

## CCOC(=O)c1sc2c(c1C)c(=O)n([C@H](C)C(=O)N(C)C(C)C)c(=O)n2C[C@H](OCCC#N)c1cc(F)ccc1OC [Compound I-229, (R)-ethyl-1-(2-(2-cyanoethoxy)-2-(5-fluoro-2-methoxyphenyl)ethyl)-3-((R)-1-(isopropyl(methyl)amino)-1-oxopropan-2-yl)-5-methyl-2,4-dioxo-1,2,3,4-tetrahydrothieno[2,3-d]pyrimidine-6-carboxylate]
[1]
  IC90: 0.4 µg/mL (≈ 0.664 µM)
[2]
  Septoria Leaf Blotch Control at a compound concentration of 25 ppm or lower: D (<25% control of wheat septoria leaf blotch)
Rhizoctonia solani (Rs)
  IC90: 2 µg/mL (≈ 3.32 µM)
Puccinia triticina
  Wheat Leaf Rust Control at a compound concentration of 10 ppm or lower: B (from 50 to 69% control of wheat leaf rust)
Sphaerotheca fuliginea
  Cucumber Powdery Mildew Control at a compound concentration of 10 ppm or lower: AA (≥85% control of cucumber powdery mildew)
[3]
  IC90: > 50 µg/mL
[4]
  IC90: 2 µg/mL (≈ 3.32 µM)
Botrtyis cinerea (Bc)
  IC90: 2 µg/mL (≈ 3.32 µM)
Septoria tritici (St)
  IC90: > 50 µg/mL
[5]
  Barley Powdery Mildew Control at a compound concentration of 10 ppm or lower: AA (≥85% control of barley powdery mildew)
Fusarium graminearum
  Wheat Fusarium Head Blight Control at a compound concentration of 25 ppm or lower: C (from 25 to 49% control of wheat fusarium head blight)
Diplodia maydis (Dm)
  IC90: 2 µg/mL (≈ 3.32 µM)
Phakopsora pachyrhizi
  Asian Soybean Rust Control at a compound concentration of 25 ppm or lower: C (from 25 to 49% control of Asian soybean rust)
[6]
  IC90: 0.08 µg/mL (≈ 0.133 µM)

## COc1ccccc1[C@H](Cn1c(=O)n([C@@H](C)C(=O)N(C)C(C)C)c(=O)c2c(C)c(-n3nccn3)sc21)OCCC#N [Compound I-239, (S)-2-(1-((R)-2-(2-cyanoethoxy)-2-(2-methoxyphenyl)ethyl)-5-methyl-2,4-dioxo-6-(2H-1,2,3-triazol-2-yl)-1,4-dihydrothieno[2,3-d]pyrimidin-3 (2H)-yl)-N-isopropyl-N-methylpropanamide]
[1]
  IC90: 0.08 µg/mL (≈ 0.138 µM)
[2]
  Septoria Leaf Blotch Control at a compound concentration of 25 ppm or lower: D (<25% control of wheat septoria leaf blotch)
Rhizoctonia solani (Rs)
  IC90: 0.08 µg/mL (≈ 0.138 µM)
Puccinia triticina
  Wheat Leaf Rust Control at a compound concentration of 10 ppm or lower: AA (≥85% control of wheat leaf rust)
Sphaerotheca fuliginea
  Cucumber Powdery Mildew Control at a compound concentration of 10 ppm or lower: AA (≥85% control of cucumber powdery mildew)
[3]
  IC90: ≥ 10 µg/mL
[4]
  IC90: 2 µg/mL (≈ 3.45 µM)
Botrtyis cinerea (Bc)
  IC90: 2 µg/mL (≈ 3.45 µM)
Septoria tritici (St)
  IC90: ≥ 10 µg/mL
[5]
  Barley Powdery Mildew Control at a compound concentration of 10 ppm or lower: AA (≥85% control of barley powdery mildew)
Fusarium graminearum
  Wheat Fusarium Head Blight Control at a compound concentration of 25 ppm or lower: C (from 25 to 49% control of wheat fusarium head blight)
Diplodia maydis (Dm)
  IC90: 2 µg/mL (≈ 3.45 µM)
Phakopsora pachyrhizi
  Asian Soybean Rust Control at a compound concentration of 25 ppm or lower: AA (≥85% control of Asian soybean rust)
[6]
  IC90: 0.08 µg/mL (≈ 0.138 µM)

## CCOC(=O)c1sc2c(c1C)c(=O)n(C(C)(C)C(=O)NC(C)C)c(=O)n2C[C@H](OCCS(C)(=O)=O)c1cc(F)ccc1OC [Compound I-285, (R)-ethyl-1-(2-(5-fluoro-2-methoxyphenyl)-2-(2-(methylsulfonyl)ethoxy)ethyl)-3-(1-(isopropylamino)-2-methyl-1-oxopropan-2-yl)-5-methyl-2,4-dioxo-1,2,3,4-tetrahydrothieno[2,3-d]pyrimidine-6-carboxylate]
[1]
  IC90: 2 µg/mL (≈ 3.05 µM)
[2]
  Septoria Leaf Blotch Control at a compound concentration of 25 ppm or lower: C (from 25 to 49% control of wheat septoria leaf blotch)
Rhizoctonia solani (Rs)
  IC90: 0.4 µg/mL (≈ 0.61 µM)
Puccinia triticina
  Wheat Leaf Rust Control at a compound concentration of 10 ppm or lower: AA (≥85% control of wheat leaf rust)
Sphaerotheca fuliginea
  Cucumber Powdery Mildew Control at a compound concentration of 10 ppm or lower: AA (≥85% control of cucumber powdery mildew)
[3]
  IC90: 50 µg/mL (≈ 76.2 µM)
[4]
  IC90: 0.4 µg/mL (≈ 0.61 µM)
Botrtyis cinerea (Bc)
  IC90: 2 µg/mL (≈ 3.05 µM)
Septoria tritici (St)
  IC90: ≥ 50 µg/mL
[5]
  Barley Powdery Mildew Control at a compound concentration of 10 ppm or lower: A (from 70% to 84% control of barley powdery mildew)
Fusarium graminearum
  Wheat Fusarium Head Blight Control at a compound concentration of 25 ppm or lower: C (from 25 to 49% control of wheat fusarium head blight)
Diplodia maydis (Dm)
  IC90: ≥ 2 µg/mL
Phakopsora pachyrhizi
  Asian Soybean Rust Control at a compound concentration of 25 ppm or lower: C (from 25 to 49% control of Asian soybean rust)
[6]
  IC90: 0.4 µg/mL (≈ 0.61 µM)
